Experimental data: article PMC12491518, “Fabrication of cytotoxic mirror image nanopores” (Nature Communications, 2025)
Where a SMILES comes first, the peptide text is derived from it. [ ]: non-standard residue; d: D form.

Tested on: MDA-MB-231 cells
Assay type: cell-based, human
Settings: 10 µM and 20 µM, 24 h, MTT, n = 3
Method: The MDA-MB-231 cell line was obtained from ATCC (Kind gift from Dr. Annapoorni Rangarajan, Indian Institute of Science, Bengaluru, Karnataka, India) and tested negative for mycoplasma contamination. Cells were cultured in DMEM (Gibco, 11965-092) supplemented with 10% FBS (Thermo Fisher Scientific, 10270-106) and Penicillin (100 Units/mL) /Streptomycin (100 µg/mL) (Thermo Fisher Scientific, 15070-063). […] Cell proliferation was measured 24 h after the addition of Peptide/ DDM using MTT assay (3-(4,5-dimethylthiazol-2-yl)-2,5-diphenyltetrazolium bromide, M6494, Thermo Fischer Scientific). […] The purple-colored formazan crystals were dissolved by adding 100 µL DMSO (D5879, Sigma Aldrich), and the absorbance at 570 nm was measured using a plate reader (EMax plus microplate reader). […]
Immunofluorescence (IF) images were analyzed to assess the impact of different treatments on cell membrane integrity. […] We evaluated a t least 100 cells for each group - Control, DDM-treated cells and peptide-treated cells- with independent analysis done by a student blinded to the groups' identity . […]
indicating a loss of cell membrane integrity. This categorization provided a clear and systematic approach to quantify the effects of various treatments on cell membrane integrity. […]

CC[C@@H](C)[C@@H](NC(=O)[C@H](N)CCSC)C(=O)N[C@H](CC(=O)O)C(=O)N[C@H](CCC(N)=O)C(=O)N[C@@H](C(=O)N[C@@H](C(=O)N[C@H](CCC(=O)O)C(=O)N[C@@H](C(=O)N[C@H](Cc1ccccc1)C(=O)NCC(=O)N[C@H](CCC(N)=O)C(=O)N[C@H](CC(C)C)C(=O)NCC(=O)N[C@@H](C(=O)N[C@H](Cc1ccccc1)C(=O)N[C@H](CC(C)C)C(=O)NCC(=O)NCC(=O)N[C@H](Cc1ccccc1)C(=O)NCC(=O)N[C@H](CC(N)=O)C(=O)N[C@@H](C(=O)N[C@H](Cc1ccccc1)C(=O)N[C@H](CCCCN)C(=O)NCC(=O)N[C@H](CC(C)C)C(=O)N[C@H](CCCCN)C(=O)N[C@H](CC(=O)O)C(=O)N[C@@H](C(=O)N[C@@H](C(=O)N[C@H](CCC(=O)O)C(=O)N[C@@H](C(=O)N[C@@H](C(=O)N[C@@H](C(=O)N[C@H](CCCCN)C(=O)N[C@H](Cc1c[nH]c2ccccc12)C(=O)N[C@@H](C(=O)N[C@H](C)C(=O)N[C@H](C)C(=O)N[C@H](CCCCN)C(=O)O)[C@H](C)O)C(C)C)[C@H](C)CC)[C@H](C)O)[C@H](C)CC)C(C)C)[C@H](C)CC)[C@H](C)O)[C@H](C)CC)[C@H](C)O)[C@H](C)CC [DpPorA] (H-[dM][dI][dD][dQ][dI][dT][dE][dI][dF]G[dQ][dL]G[dT][dF][dL]GG[dF]G[dN][dI][dF][dK]G[dL][dK][dD][dV][dI][dE][dT][dI][dV][dK][dW][dT][dA][dA][dK]-OH; N-terminus and C-terminus assumed)
change in cell viability: no significant change in viability
